According to US8586611B2 (priority 2005, dated 2013):

Assays:
Type in all cases: in vivo
Plasmopara viticola = assay: Test B: grape downy mildew, spray 24 h after inoculation (disease rating, 100 = 100% disease control)
Outline: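 This is a curative spray test, applied 24 h after inoculation. Compounds in 50/50 acetone–water with 250 ppm Trem 014 surfactant were sprayed to run-off on P. viticola-infected seedlings, with 200 ppm equating to 500 g/ha. Plants were kept 5 days in a 20 °C growth chamber, then 24 h humid, and scored 0–100 for disease control relative to controls.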

Phytophthora infestans [1] = assay: whole plant or invertebrate; details: tomato late blight
[2] = tested on: Pseudoperonospora cubensis; assay: Test A: cucumber downy mildew, spray the day before inoculation (disease rating, 100 = 100% disease control)
Excerpt: The test compounds were first dissolved in acetone in an amount equal to 3% of the final volume and then suspended at the desired concentration (in ppm) in acetone and purified water (50/50 mix by volume) containing 250 ppm of the surfactant Trem® 014 (polyhydric alcohol esters). The resulting test suspensions were then used in tests A-E. Spraying a 200 ppm test suspension to the point of run-off on the test plants was the equivalent of a rate of 500 g/ha.
The test suspension was sprayed to the point of run-off on cucumber seedlings. The following day the seedlings were inoculated with a spore suspension of Pseudoperonospora cubensis (the causal agent of cucumber downy mildew) and incubated in a saturated atmosphere at 20° C. for 24 h, and then moved to a growth chamber at 20° C. for 6 days, after which disease ratings were made.
Results for Tests A-F are given in Table A. In the table, a rating of 100 indicates 100% disease control and a rating of 0 indicates no disease control (relative to the controls). A dash (-) indicates no test results.

[3] = tested on: Erysiphe graminis f. sp. tritici; assay: Test E: wheat powdery mildew, spray the day before inoculation (disease rating, 100 = 100% disease control)
Outline: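 Protective test: spores of E. graminis f. sp. tritici dusted on wheat seedlings one day after run-off spraying of test suspension (acetone/water with 250 ppm surfactant; 200 ppm = 500 g/ha). Ratings after 7 days in growth chamber at 20° C, 100 = full control, 0 = none, relative to controls.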

Phytophthora infestans [4] = assay: whole plant or invertebrate; details: tomato late blight; spray 17 h after inoculation; tested at 40 ppm
[5] = spray 24 h after inoculation, compounds without asterisk (not 40 or 10 ppm)
[6] = spray 24 h after inoculation, tested at 40 ppm
[7] = spray the day before inoculation, compounds without asterisk (not 40 or 10 ppm)
[8] = spray the day before inoculation, tested at 40 ppm
[9] = sprayed 24 h after inoculation, unmarked compounds (no asterisk, not 40 or 10 ppm)
[10] = sprayed the day before inoculation, unmarked compounds (no asterisk, not 40 or 10 ppm)
[11] = sprayed the day before inoculation, 7 days at 20° C., unmarked compounds (no asterisk, not 40 or 10 ppm)

N-methyl-2-[1-[[5-methyl-3-(trifluoromethyl)-1H-pyrazol-1-yl]acetyl]-4-piperidinyl]-N-[(1R,2S)-1,2,3,4-tetrahydro-2-methyl-1-naphthalenyl]-4-thiazolecarboxamide [Compound 234]
Test B disease rating (100 = 100% disease control, 0 = no disease control) (Plasmopara viticola; [5]): 100%
Test B disease rating (100 = 100% disease control, 0 = no disease control) (Plasmopara viticola; [6]): 100%
Test C disease rating (100 = 100% disease control, 0 = no disease control) (Phytophthora infestans [1]; [7]): 100%
Test C disease rating (100 = 100% disease control, 0 = no disease control) (Phytophthora infestans [1]; [8]): 100%
Test A disease rating (100 = 100% disease control, 0 = no disease control) [2, 7]: 100%
Test E disease rating (100 = 100% disease control, 0 = no disease control) [3, 7]: 21%
Test E disease rating (100 = 100% disease control, 0 = no disease control) [3, 8]: 0%
Test D disease rating (100 = 100% disease control, 0 = no disease control) (Phytophthora infestans [4]): 99%

N-[(1R)-2,3-dihydro-1H-inden-1-yl]-N-methyl-2-[1-[[5-methyl-3-(trifluoromethyl)-1H-pyrazol-1-yl]acetyl]-4-piperidinyl]-4-thiazolecarboxamide [Compound 178]
Test B disease rating (100 = 100% disease control, 0 = no disease control) (Plasmopara viticola; [5]): 99%
Test C disease rating (100 = 100% disease control, 0 = no disease control) (Phytophthora infestans [1]; [7]): 100%
Test A disease rating (100 = 100% disease control, 0 = no disease control) [2, 7]: 100%
Test E disease rating (100 = 100% disease control, 0 = no disease control) [3, 7]: 0%

O=C(NCc1ccccc1)c1csc(C2CCN(C(=O)Cc3ccccc3Cl)CC2)n1 [compound 262]
Test B disease rating (100 = 100% disease control, 0 = no disease control) (Plasmopara viticola; [9]): 6
Test C disease rating (100 = 100% disease control, 0 = no disease control) (Phytophthora infestans [1]; [10]): 52
Test A disease rating (100 = 100% disease control, 0 = no disease control) [2, 10]: 94
Test E disease rating (100 = 100% disease control, 0 = no disease control) [3, 11]: 0

O=C(Cc1ccccc1Cl)N1CCC(c2nc(C(=O)N3CCCC3c3cccnc3)cs2)CC1 (stereo not shown) [compound 269]
Test B disease rating (100 = 100% disease control, 0 = no disease control) (Plasmopara viticola; [9]): 40
Test C disease rating (100 = 100% disease control, 0 = no disease control) (Phytophthora infestans [1]; [10]): 0
Test A disease rating (100 = 100% disease control, 0 = no disease control) [2, 10]: 0
Test E disease rating (100 = 100% disease control, 0 = no disease control) [3, 11]: 0

2-[1-[[3,5-bis(trifluoromethyl)-1H-pyrazol-1-yl]acetyl]-4-piperidinyl]-N-methyl-N-[(1R)-1,2,3,4-tetrahydro-1-naphthalenyl]-4-thiazolecarboxamide [Compound 210]
Test B disease rating (100 = 100% disease control, 0 = no disease control) (Plasmopara viticola; [5]): 6%
Test C disease rating (100 = 100% disease control, 0 = no disease control) (Phytophthora infestans [1]; [7]): 0%
Test A disease rating (100 = 100% disease control, 0 = no disease control) [2, 7]: 0%
Test E disease rating (100 = 100% disease control, 0 = no disease control) [3, 7]: 0%

C[C@H](c1ccccc1)N(C)C(=O)c1csc(C2CCN(C(=O)Cc3cccc(OC(F)(F)F)c3)CC2)n1 [compound 49]
Test B disease rating (100 = 100% disease control, 0 = no disease control) (Plasmopara viticola; [5]): 83%
Test C disease rating (100 = 100% disease control, 0 = no disease control) (Phytophthora infestans [1]; [7]): 67%
Test A disease rating (100 = 100% disease control, 0 = no disease control) [2, 7]: 97%
Test E disease rating (100 = 100% disease control, 0 = no disease control) [3, 7]: 85%

O=C(NC1Cc2ccccc2C1)c1csc(C2CCN(C(=O)Cc3ccccc3Cl)CC2)n1 [compound 265]
Test B disease rating (100 = 100% disease control, 0 = no disease control) (Plasmopara viticola; [9]): 34
Test C disease rating (100 = 100% disease control, 0 = no disease control) (Phytophthora infestans [1]; [10]): 0
Test A disease rating (100 = 100% disease control, 0 = no disease control) [2, 10]: 0
Test E disease rating (100 = 100% disease control, 0 = no disease control) [3, 11]: 47

Cc1cc(C)cc(CC(=O)N2CCC(c3nc(C(=O)N(C)[C@H](C)c4ccccc4)cs3)CC2)c1 [compound 43]
Test B disease rating (100 = 100% disease control, 0 = no disease control) (Plasmopara viticola; [5]): 83%
Test C disease rating (100 = 100% disease control, 0 = no disease control) (Phytophthora infestans [1]; [7]): 100%
Test A disease rating (100 = 100% disease control, 0 = no disease control) [2, 7]: 100%
Test E disease rating (100 = 100% disease control, 0 = no disease control) [3, 7]: 21%

N-methyl-2-[1-[[5-methyl-3-(trifluoromethyl)-1H-pyrazol-1-yl]acetyl]-4-piperidinyl]-N-[(1R)-1-phenylpropyl]-4-oxazolecarboxamide [Compound 152]
Test B disease rating (100 = 100% disease control, 0 = no disease control) (Plasmopara viticola; [5]): 0%
Test C disease rating (100 = 100% disease control, 0 = no disease control) (Phytophthora infestans [1]; [7]): 0%
Test A disease rating (100 = 100% disease control, 0 = no disease control) [2, 7]: 0%
Test E disease rating (100 = 100% disease control, 0 = no disease control) [3, 7]: 0%

2-[1-[(2,5-dichlorophenyl)acetyl]-4-piperidinyl]-N-methyl-N-[(1R)-1-phenylpropyl]-4-thiazolecarboxamide [Compound 110]
Test B disease rating (100 = 100% disease control, 0 = no disease control) (Plasmopara viticola; [5]): 53%
Test C disease rating (100 = 100% disease control, 0 = no disease control) (Phytophthora infestans [1]; [7]): 0%
Test A disease rating (100 = 100% disease control, 0 = no disease control) [2, 7]: 0%
Test E disease rating (100 = 100% disease control, 0 = no disease control) [3, 7]: 21%

C[C@H](c1ccccc1)N(C)C(=O)c1csc(C2CCN(C(=O)Cc3cc(F)cc(C(F)(F)F)c3)CC2)n1 [compound 40]
Test B disease rating (100 = 100% disease control, 0 = no disease control) (Plasmopara viticola; [5]): 76%
Test C disease rating (100 = 100% disease control, 0 = no disease control) (Phytophthora infestans [1]; [7]): 60%
Test A disease rating (100 = 100% disease control, 0 = no disease control) [2, 7]: 98%
Test E disease rating (100 = 100% disease control, 0 = no disease control) [3, 7]: 0%

C[C@H](c1ccccc1)N(C)C(=O)c1csc(C2CCN(C(=O)Cc3ccccc3OC(F)(F)F)CC2)n1 [compound 45]
Test B disease rating (100 = 100% disease control, 0 = no disease control) (Plasmopara viticola; [5]): 70%
Test C disease rating (100 = 100% disease control, 0 = no disease control) (Phytophthora infestans [1]; [7]): 98%
Test A disease rating (100 = 100% disease control, 0 = no disease control) [2, 7]: 95%
Test E disease rating (100 = 100% disease control, 0 = no disease control) [3, 7]: 0%

N-methyl-2-[1-[[5-methyl-3-(trifluoromethyl)-1H-pyrazol-1-yl]acetyl]-4-piperidinyl]-N-[(1R)-1-phenylethyl]-4-thiazolecarboxamide [Compound 70]
Test B disease rating (100 = 100% disease control, 0 = no disease control) (Plasmopara viticola; [5]): 0%
Test C disease rating (100 = 100% disease control, 0 = no disease control) (Phytophthora infestans [1]; [7]): 33%
Test A disease rating (100 = 100% disease control, 0 = no disease control) [2, 7]: 0%
Test E disease rating (100 = 100% disease control, 0 = no disease control) [3, 7]: 0%

C[C@@H](NC(=O)c1csc(C2CCN(C(=O)Cc3ccccc3Cl)CC2)n1)c1ccccc1 [compound 261]
Test B disease rating (100 = 100% disease control, 0 = no disease control) (Plasmopara viticola; [9]): 0
Test C disease rating (100 = 100% disease control, 0 = no disease control) (Phytophthora infestans [1]; [10]): 31
Test A disease rating (100 = 100% disease control, 0 = no disease control) [2, 10]: 93
Test E disease rating (100 = 100% disease control, 0 = no disease control) [3, 11]: 21

Cc1cc(C(F)(F)F)nn1CC(=O)N1CCC(c2nc(C(=O)N(C)C3c4ccccc4CCC3(C)C)cs2)CC1 (stereo not shown) [Compound 236]
Test B disease rating (100 = 100% disease control, 0 = no disease control) (Plasmopara viticola; [5]): 61%
Test B disease rating (100 = 100% disease control, 0 = no disease control) (Plasmopara viticola; [6]): 100%
Test C disease rating (100 = 100% disease control, 0 = no disease control) (Phytophthora infestans [1]; [7]): 62%
Test C disease rating (100 = 100% disease control, 0 = no disease control) (Phytophthora infestans [1]; [8]): 100%
Test A disease rating (100 = 100% disease control, 0 = no disease control) [2, 7]: 97%
Test E disease rating (100 = 100% disease control, 0 = no disease control) [3, 7]: 0%
Test E disease rating (100 = 100% disease control, 0 = no disease control) [3, 8]: 0%
Test D disease rating (100 = 100% disease control, 0 = no disease control) (Phytophthora infestans [4]): 99%

N-methyl-2-[1-[[5-methyl-3-(trifluoromethyl)-1H-pyrazol-1-yl]acetyl]-4-piperidinyl]-N-[(1R,4R)-1,2,3,4-tetrahydro-4-hydroxy-1-naphthalenyl]-4-thiazolecarboxamide [Compound 206]
Test B disease rating (100 = 100% disease control, 0 = no disease control) (Plasmopara viticola; [5]): 5%
Test C disease rating (100 = 100% disease control, 0 = no disease control) (Phytophthora infestans [1]; [7]): 31%
Test A disease rating (100 = 100% disease control, 0 = no disease control) [2, 7]: 99%
Test E disease rating (100 = 100% disease control, 0 = no disease control) [3, 7]: 0%

2-[1-[(3,5-dichloro-1H-pyrazol-1-yl)acetyl]-4-piperidinyl]-N-methyl-N-[(1R)-1,2,3,4-tetrahydro-1-naphthalenyl]-4-thiazolecarboxamide [Compound 238]
Test B disease rating (100 = 100% disease control, 0 = no disease control) (Plasmopara viticola; [5]): 6%
Test C disease rating (100 = 100% disease control, 0 = no disease control) (Phytophthora infestans [1]; [7]): 0%
Test A disease rating (100 = 100% disease control, 0 = no disease control) [2, 7]: 0%
Test E disease rating (100 = 100% disease control, 0 = no disease control) [3, 7]: 0%
